The values below come from patent publication US20260034200A1, “TOLEROGENIC PEPTIDES” (University of Birmingham, priority 2022, published 2026).

In test [1] the test system is GAD65 P10-specific T-cell hybridomas. The test can be described thus: T-cell hybridoma screen with Priess cells as APCs, IL-2 ELISA. The note with it: hybridoma multi-clone 6 with HLA-DRB1*04:01 expressing APCs. Format: cell-based, mouse. How it is done:
HLA-DR4 transgenic mice were injected subcutaneously with Complete Freund's Adjuvant (CFA) and 100 μg of GAD65 P10 30-mer. After 10 days, splenocytes were isolated and re-stimulated with GAD65 P10 30-mer for a further 4-5 days before fusion with hypoxanthine-aminopterin-thymidine (HAT) sensitive BW5147 cells using polyethylene glycol (PEG). Fused hybridomas were expanded in HAT selection media before antigen-specific screening. Co-cultures of 1×10^5 hybridomas and 2×10^5 Priess cells (an Epstein-Barr Virus (EBV) transformed DR4 (DRB1*04:01) expressing human cell line (ECACC 86052111)) as antigen presenting cells (APCs) were incubated for 48 h in a 96-well plate with peptide, whole GAD65 protein, or media only. Antigen-specific responses were determined by IL-2 secretion into culture supernatant by ELISA assay (BioLegend 431004). Hybridomas that proliferated in response to both GAD65 protein and GAD65 30-mer were single cell cloned by limiting dilution.
Six 15-mers that spanned the parent 30-mer amino acid sequence were generated by 3 amino acid shifts from the N-terminus toward the C-terminus.
For orientation: An ELISA detects its analyte on a solid surface through an enzyme-linked reagent.

Test [2] has as its system PBMCs from T1D patients (CD25+ CD71+ CTVmid CD4+ T-cells). The test can be described thus: FAIM assay with PBMCs from T1D patients. The class given is cell-based, human. The note with it: 34/38 T1D patients. From the text: FIG. 7. GAD65 P10Sol response rate in T1D patients. (A) T1D PBMCs were screened using the FAIM assay for responsiveness to GAD65 P10 30-mer and GAD65 P10Sol with paired ^3H-thymidine samples were acquired for each condition. A positive response for FAIM assay required a proliferating CD25^+ CD71^+ CD4 T-cell count >25 and the population SI to be ≥2× the negative control. A positive response for the ^3H-thymidine assay required raw counts >1000 and a SI of ≥3× the negative control. […] The scale for both heat maps is Log 2 (stimulation index (SI)). […] (B) Agreement analysis for the outcomes of the flow cytometric and ^3H-thymidine proliferation readouts of the FAIM assay. (C) Paired analysis of stimulation indexes from FAIM^+ and ^3H-thymidine readouts, wilcoxon matched-pairs sign rank test.
Soluble candidate peptide GAD65 P10Sol (SEQ ID NO 23) was used as a representative peptide and tested for induction of tolerance in a suitable HLA-DR transgenic mouse model (FIG. 1A). […] The FAIM assay involves a fluorescent dye-labelled CD4^+ cell enriched culture with a primary flow cytometric readout assessing CD4 T-cell fluorescent dye dilution and cell-surface activation marker expression with optional paired readouts of ^3H-thymidine incorporation and secreted cytokine measurement. […]

The subject of test [3] is peripheral blood mononuclear cells (PBMCs). Kind of test: Human PBMC 3H-thymidine incorporation assay. Format: cell-based. Conditions: for positive response rate in 3H-thymidine incorporation assay: day 7, positive = SI>=3 and ccpm >1000. Here is the method:
Fresh blood samples were collected in CPDA-tubes. PBMCs from lymphocyte cones or fresh blood were isolated by Ficoll gradient centrifugation, frozen in 40% RPMI-1640, 50% heat inactivated fetal bovine serum (Sigma; F9665) and 10% DMSO and stored in liquid nitrogen until required. Thawed PBMCs were cultured at 1.5×10^6 cells/mL in X-VIVO-15 medium ((Lonza BE02-061Q) supplemented with 5% v/v human AB serum (Sigma H4522), 1× penicillin/streptomycin (Gibco 15140122)) either in the presence of GAD65 P10 30-mer antigen between 20-50 μg/mL or absence of antigen (negative control). Peptide response was measured by 3H radioactive thymidine incorporation on day 5 and day 7, by pulsing cell cultures with ^3H-thymidine (Perkin Elmer), as previously described (Mazza et al., 2002). Positive responses had corrected counts per minute (ccpm) counts >1000 and a stimulation index (SI)≥3, calculated as the fold-change of peptide stimulated condition over the negative control.
The workflow to design and validate tolerogenic apitopes (antigen processing independent T-cell epitopes) begins with identification of peptides predicted to bind to various HLA-DR molecules (pan-DR binders) using a combination of publicly available MHC-binding algorithms (FIG. 1A). In silico analyses identified 9 or 15 amino acid peptides within GAD65 that were extended to ˜30-mer peptides (FIG. 1B) to encourage antigen processing and presentation of a naturally processed epitope (Anderton et al., 2002). To test whether the designed 30-mer peptides could be correctly processed and preferentially induce immune responses in T1D patients, we screened for GAD65 30-mers responses in isolated peripheral blood mononuclear cells (PBMCs) from 20 non-diabetic healthy controls and 40 adults with T1D. […] On day 7 of the ^3H-thymidine incorporation assay, 20% (4/20) of healthy controls had shown a positive response to GAD65 P10 30-mer compared to 58% (23/40) of T1D patients (FIG. 1C).
(Incorporation of labelled thymidine or its analogues reports DNA synthesis.)

For the sequence “DAAWGGGLLMSRKHKWKLSGVERANSVTWN [P10 30-mer]”, the “hybridoma IL-2 response” value in test [1] is “could respond”. In test [2], the “T1D patients responding (FAIM+)” value amounted to 89%. Also, the “average magnitude of the proliferative response” value in test [3] (T1D patients vs healthy controls, Mann-Whitney p=0.0146) is “significantly increased”. For the same sequence, the “positive response rate in 3H-thymidine incorporation assay” value stood at 58% in test [3] (T1D patients (23/40)) and 20% in test [3] (non-diabetic healthy controls (4/20)).
